Calls of active or inactive are those of the source. How the calls were made is not given here.
system: S. cerevisiae SKN7-toxicity growth rescue, plate reader; test: Yeast SKN7 toxicity growth rescue counterscreen, Saccharomyces cerevisiae, plate reader, dose confirmatory (AID 624258);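 further: growth read after three days of incubation at 30 °C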

Point of comparison: `O=c1c(-c2cccc3ccccc23)[n+]([O-])c2ccccc2n1O`, AC40 12.6 µM. Against it:
- COc1ccc(/C=C(\C#N)c2c[nH]c3ccccc23)cc1 — within 1.5-fold, 17.6 µM
- O=c1cnn([C@@H]2O[C@H](CO)[C@@H](O)[C@H]2O)c(=O)[nH]1 — 14-fold lower, 0.882 µM
- O=C(Oc1cc2oc(=O)cc(-c3ccccc3)c2cc1Cl)C1CCCCC1 — 1.6-fold lower, 8.04 µM
- COc1ccccc1-c1cc(C(F)(F)F)nc(S(C)(=O)=O)n1 — 7.4-fold lower, 1.71 µM
- CC(C)n1cnc2c(NCc3ccccc3)cc(Cc3ccc(F)cc3)cc21 — 3.7-fold lower, 3.4 µM
- O=C1C(=C(I)I)c2ccccc2-c2ccccc21 — 6.1-fold lower, 2.07 µM
- CCCC1CCC(c2ccc(/C(N)=N/O)cc2)CC1 (stereo not drawn) — 26-fold lower, 0.476 µM
- O=C1CC(N2CCCCCC2)C(=O)N1c1ccc2c(c1)OCO2 (stereo not drawn) — 1.9-fold lower, 6.75 µM
- O=C(CSc1nnc(-c2ccccc2O)n1Cc1ccccc1)NNC(=O)c1ccccc1O — 1.8-fold lower, 6.84 µM
- Cc1ccc(N(CN2C(=O)c3ccccc3C2=O)C(=O)c2ccc([N+](=O)[O-])cc2[N+](=O)[O-])cc1 — 1.8-fold lower, 7.16 µM
- Cc1ccc(C(C)(C)C)cc1S(=O)(=O)Nc1ncnc2sccc12 — 11-fold lower, 1.15 µM
- CC(=O)C1CCC2C3CC=C4CC(SC(=N)N)CCC4(C)C3CCC12C (stereo not drawn) — 7.6-fold lower, 1.66 µM
- O=C1C=C(Nc2ccccc2O)c2ccccc2C1=O — the same, 12.6 µM
- O=[N+]([O-])c1cc(Cl)cc(/C=N/NC(=S)Nc2ccc(S(=O)(=O)N3CCOCC3)cc2)c1O — 5.7-fold lower, 2.22 µM
- COc1ccc2c(n1)Sc1nc3ccccc3nc1N2 — 19-fold lower, 0.649 µM
- O=C(CSc1ccc(-c2ccccn2)nn1)N1CCCc2ccccc21 — 2.7-fold lower, 4.75 µM
- Cc1cc(/C=N/n2cnnc2)c(C)n1-c1ccc(OCc2ccc(F)cc2)cc1 — 24-fold lower, 0.516 µM
- O=C1c2ccccc2NC(c2ccc(Cl)cc2Cl)N1O (stereo not drawn) — 1.7-fold lower, 7.55 µM
- Cc1csc2nc(O)c(C(=O)NCCCc3ccccc3)c(=O)n12 — 16-fold lower, 0.801 µM
- Cc1cc(Cl)ccc1OCC(=O)NCCCCc1ccccc1 — within 1.5-fold, 8.43 µM
- O/N=C/c1cc(Br)ccc1OCc1cccc(F)c1 — 2.2-fold lower, 5.83 µM
- C(=N\NC1=Nc2cccc3cccc1c23)/c1ccccn1 — 2.3-fold lower, 5.47 µM
- Cc1cc([N+](=O)[O-])cc(/C=N/n2c(C)nc3ccccc3c2=O)c1O — 3-fold lower, 4.24 µM
- CSC1=NC(=O)/C(=C/c2ccc(SC)cc2)S1 — 4.8-fold lower, 2.61 µM
- COc1cc(OC)cc(N2C(=O)CC(N3CCC(C(=O)N4CCCCC4)CC3)C2=O)c1 (stereo not drawn) — within 1.5-fold, 13.7 µM
- O=C(Oc1ccc(N(C(=O)c2ccncc2)S(=O)(=O)c2ccc(Cl)cc2)cc1)c1ccncc1 — 13-fold lower, 0.978 µM
- COc1ccc2nc(NN=C(C)c3ccccn3)cc(C)c2c1 — 3.9-fold lower, 3.23 µM
- Nc1c(Cl)ncnc1N/N=C/c1ccc2ccccc2n1 — 2.9-fold lower, 4.34 µM
- O=c1c2cc(Cl)ccc2oc2nc3n(c(=O)c12)CCCS3 — 1.5-fold higher, 19.1 µM
- Oc1ccc(Cl)cc1CNc1cccc2cccnc12 — 81-fold lower, 0.156 µM
- CC(C)(C)c1ccc(-n2nc(C#N)c(Cl)cc2=O)cc1 — 43-fold lower, 0.292 µM
- Cc1cccc(N2CCN(C(=O)C3CCCCC3)CC2)c1C — 1.5-fold higher, 19.3 µM
- CC(C)(C)c1cc(-c2nc(N)nc(N)n2)c(O)c(C(C)(C)C)c1 — 6.6-fold lower, 1.92 µM
- O=C(Nc1ccc(Cl)c(Cl)c1)C1CCCCC1 — 22-fold lower, 0.565 µM
- CCC(Oc1ccccc1)C(=O)Nc1ncc([N+](=O)[O-])s1 (stereo not drawn) — 19-fold lower, 0.668 µM
- COc1ccccc1C1CCN(c2cc(O)ccc2[N+](=O)[O-])CC1 — 4.5-fold lower, 2.83 µM
- COc1ccc(CNc2ncnc3sccc23)cc1 — within 1.5-fold, 14.6 µM
- C/C(CC(=O)Nc1ccccn1)=N\NC(=O)c1ccccc1O — 2.5-fold lower, 5.11 µM
- CC(NC(=S)NC1CCC(C(C)(C)C)CC1)c1ccccc1 (stereo not drawn) — 2-fold lower, 6.16 µM
- CC1Cc2ccccc2N1c1ncnc(N)c1[N+](=O)[O-] (stereo not drawn) — 1.7-fold lower, 7.27 µM
- CCOC(=O)c1ccc(NC(=O)CC2OCCN(CC)C2=O)cc1 (stereo not drawn) — 2.2-fold lower, 5.81 µM

`Oc1ccccc1N=Cc1ccc[nH]1` was tested, and the AC40 was > 0.75 µM (inactive).
